Like-named read-outs stand apart in the source and are kept apart here.
How the values were obtained:
PC3 and DU145 [1] = experiment: Alamar Blue cell viability, AR-negative PCa cell lines (stated for both); settings: Homo sapiens, DU-145, read-out: IC50 against PC3 and DU145 cell lines
[2] = tested on: primary human dental bulb cells (ND); experiment: Alamar Blue cell viability, normal primary dental cells; settings: 48 hours, Mean ± SEM
DU145 [3] = experiment: Alamar Blue cell viability assay, DU145; settings: Homo sapiens, DU-145, 48 h
E-cadherin = experiment: Western blot of EMT-related biomarkers in DU145; settings: DU145 cells
PC3 [4] = experiment: Soft agar colony formation assay, PC3; format: cell-based, human; design: average size of detected colonies, PC3: unit not given here; settings: 10 μM
Description: (§1) Anchorage-independent growth, a characteristic of transformed cells that correlate with in vivo tumorigenic potential, was assessed by soft agar assay. First, a 2% noble agar (Sigma-Aldrich) stock solution was prepared in deionized and autoclaved water. […] After 14 days, the average number of colonies in each well was counted manually under the microscope and confirmed by ImageJ; only colonies with an area larger than […] were counted to avoid the inclusion of non-proliferating dead cells. Besides, the size of colonies in each treatment condition was measured by ImageJ from at least six random fields per well.

PC3 and DU145 [5] = experiment: Morphological examination, PC3 and DU145; format: cell-based, human; settings: 5 μM
Description: Cells were seeded in 6 wells plate at a density of 150,000-200,000 cells/well and were incubated overnight. Then, cells were treated with the synthesized compounds at 5-10 μM concentration for 48 hours. Morphological changes were monitored using a DMi8 inverted microscope (Leica, Germany) and images were captured with a Leica MC170 HD camera.
The induction of apoptosis in cancer cells has been widely considered an important criterion in developing anticancer drugs. To confirm whether the synthesized compounds could reduce cell viability and induce apoptosis in PC3 and DU145, prostate cancer cells were treated with compounds 1-16 at 10 μM concentrations for 48 hours. Cells were examined for the formation of apoptotic bodies or death by phase-contrast microscopy (FIGS. 21 and 22). More importantly, cells were monitored for characteristic changes in cell morphology as they can provide insight into cell differentiation, invasiveness, survival, and genetic alterations.

CAM of chicken embryos = experiment: Chorioallantoic membrane (CAM) angiogenesis assay; format: in vivo; settings: in ovo, 48 hours post-treatment, vs control
Description: Fertilized white leghorn chicken eggs were obtained from Arab […] for Poultry Production, Doha, Qatar. Eggs were incubated in a rotary humidified MultiQuip Incubator at 37° C. with 60% humidity. Ethics approval was obtained from Institutional Animal Care & Use Committee and Institutional Bio-safety committee at Qatar University. […] Briefly, eggshells were disinfected with ethanol and a small opening was made in the shell over the air sac. Next, 200 μl of 1×PBS was added and the shell membrane was carefully removed. […] Subsequently, opened windows were sealed and the eggs were returned to a stationary incubator (FIG. 11). The effect of compounds on angiogenesis was monitored for 48 hours post-treatment and microscopic images of exposed (under coverslip) and unexposed area in each embryo were captured at equivalent magnification. Images were then analyzed using AngioTool software using the following parameters: vessel diameter thresholds at, vessel thickness at 7 and 10, removed small particles at 60, and filled holes at 183. The difference in blood vessel formation between treated and untreated embryos was assessed based on average vessel length, vessel percentage area and the total number of blood vessel junctions. […]

PC3 and DU145 [6] = experiment: Wound healing assay, PC3 and DU145; settings: both cell lines; significant from 5 μM in PC3
PC3 and DU145 [7] = experiment: Soft agar colony formation assay, PC3 and DU145 (stated for both); format: cell-based, human; settings: 5 and 10 μM, 14 days, both cell lines
Description: as §1

DU145 [8] = experiment: Annexin V / 7-AAD apoptosis assay, DU145; format: cell-based, human; settings: 48 hours
Description: (§2) Cellular apoptosis was assessed by PE Annexin V apoptosis Detection Kit (BDPharmingen, USA) as per the manufacturer's protocol. Briefly, cells were seeded in 100 mm Petri dishes at a density of 1.5 million cells/dish and incubated overnight. […] Adherent and floating cells were then harvested by trypsin, washed twice by PBS, resuspended in binding buffer and stained with Phycoerythrin (PE) conjugated Annexin-V, 7-AAD or both stains for 15 minutes. After staining, samples were analyzed by BD FACSAria™ II Flow Cytometer and FlowJo software. First, the cell population, excluding debris, was gated with forward scatter (FSC-A) and side scatter (SSC-A). Then, doublets were excluded using FSC-height and FSC-width plots. […] Quad Gates were used to calculate the percentage of viable cells (annexin V low, 7-AAD low), early pro-apoptotic cells (annexin V high, 7-AAD low) and late apoptosis/dead cells (annexin V high, 7-AAD high).

JNK1/2/3, ERK1/2, Akt = experiment: Western blot of JNK, ERK and AKT-related biomarkers in PC3; settings: PC3 cell line
Bax, Bcl-2 = experiment: Western blot of apoptosis-related proteins in PC3 and DU145; settings: PC3 and DU145, 48 hours of treatment
PC3 [9] = experiment: Annexin V / 7-AAD apoptosis assay, PC3; format: cell-based, human; settings: 48 hours
Description: as §2

PC3 [10] = experiment: Alamar Blue cell viability assay, PC3
DU145 [11] = experiment: Cell cycle analysis (PI flow cytometry), DU145; format: cell-based, human; settings: DU145, 48 hours; not statistically significant (P>0.05)
Description: Cells were seeded in 100 mm Petri dishes at a density of 1.5 million cells/dish and incubated in RPMI supplemented with 10% FBS overnight at 37° C. Complete culture media was then removed, and cells were starved in serum serum-free for 16 hours to synchronize cells at the G0/G1 phase of the cell cycle. Subsequently, cells were treated with the compounds 13, 15, and 16 or docetaxel for 48 hours. After treatment, floating and adherent cells were collected, washed with ice-cold PBS and centrifuged at 500 g for 10 minutes at 4° C. Next, cells were fixed with ice-cold 70% ethanol added drop wisely while vertexing and stored at −20° C. for at least 24 hours. On the day of analysis, cells were pelleted (centrifuged at 800 g for 10 minutes at 4° C.), washed twice with ice-cold PBS and counted. Around one million cells of each sample were resuspended in 500 μl of FxCycle PI/RNase Staining Solution® (Thermo Fisher Scientific, USA) supplemented with 200 μg/ml RNase and incubated for 50 minutes at 37° C. in a shaking water bath, protected from light. Following incubation, cells were immediately analyzed by BD FACSAria™ II Flow Cytometer, at least 50,000 events were acquired for each sample. The proportion of cells in each cell cycle phase: […]

DU145 [12] = experiment: Soft agar colony formation assay, DU145; format: cell-based, human; design: average size of detected colonies, DU145: unit not given here; settings: 10 μM
Description: as §1

[13] = 14 days, in comparison to control

COc1cccc(C(=O)/C=C/c2cccc(-c3ccsc3)n2)c1 [Compound 16, (E)-1-(3-methoxyphenyl)-3-(6-(thiophen-3-yl)pyridin-2-yl) prop-2-en-1-one]
IC50 (PC3 and DU145 [1]): 4.32 to 6.47 µM | ND LD50 [2]: 24.67 ± 1.03 µM | IC50 (DU145 [3]; read-out: DU145 IC50): 5.2 ± 0.46 µM | IC50 (DU145 [3]; read-out: IC50 against DU145): 5.2 µM | cytotoxicity at 10 µM (DU145 [3]; read-out: reduction in cell viability of DU145): 81% | expression of E-cadherin (E-cadherin): significantly upregulate the expression of E-cadherin | reduction in number of colonies, PC3 (PC3 [4]; [13]): 82.8% | average size of detected colonies, PC3 (PC3 [4]; control 583.2): 20.0 | effect on cell morphology (PC3 and DU145 [5]): increased cell detachment, the formation of apoptotic bodies, and cell shrinkage | effect on angiogenesis of the CAM (CAM of chicken embryos): significant reduction in average vessel length, a total number of junctions, and vessel area | wound closure (PC3 and DU145 [6]): dose-dependent reduction in wound closure | colony formation in soft agar (number and size) (PC3 and DU145 [7]): significant reduction in both the total number of colonies and average colony size | induction of apoptosis in DU145 (DU145 [8]): 47.8% | expression of JNK1/2/3, ERK1/2, Akt and phosphorylated forms (JNK1/2/3, ERK1/2, Akt): significantly reduced the expression of JNK1/2/3 and phosphorylated ERK1/2 | Bax/Bcl-2 expression (Bax, Bcl-2): significant increase in Bax/Bcl-2 ratio | induction of apoptosis in PC3 (PC3 [9]): 34.7% | reduction in cell viability of PC3 (PC3 [10]; 2.5 μM): 47.5% | IC50 (PC3 [10]; read-out: PC3 IC50, 48 hours, Mean ± SEM of three independent experiments): 4.32 ± 0.37 µM | effect on cell cycle distribution (DU145 [11]): slight accumulation in G2/M and sub G1 phases | reduction in number of colonies, DU145 (DU145 [12]; [13]): 84.9% | average size of detected colonies, DU145 (DU145 [12]; control 196.0): 18.7
